Our source for the MIC and EC50 values is patent US10494375B2, “Antimicrobial compound” (priority 2016, dated 2019).

≈ marks a conversion by molar mass, not a printed value. Where two headings read alike, the source gives them in different places. Where a SMILES comes first, the peptide text is derived from it. Bridges are numbered along the chain shown (N, C = ends). [ ]: non-standard residue; d: D form. The star is where a group is joined. Ileψ(thiazoline)Cys = CC[C@H](C)[C@H](N)C1=N[C@H](C(=O)*)CS1; dOrn = NCCC[C@@H](N)C(=O)O

In one assay the test system is E. faecium CCUG 37832. Nature of the assay: MIC determination by standardized microdilution test in Mueller-Hinton broth. The class given is cell-based, Enterococcus faecium. On the procedure: (§1) MBL-AB01 was tested against a panel of Gram-negative and Gram-positive pathogens. MICs for all Gram-positive and Gram-negative bacterial strains were determined by standardized microdilution tests using Mueller-Hinton broth (Acumedia). Bacterial inoculums containing 5×10^5 CFU/ml were incubated for 19 h at 35° C. in the presence of different antibiotic concentrations according to Clinical and Laboratory Standards Institute protocols. The bacterial strains were obtained from the culture collections ATCC (American Type Culture Collection), NCTC (National Collection of Type Cultures) and CCUG (culture collection university of Göteborg Sweden).

The test system of another assay is E. faecium CTC 492. Described as above. In kind it is cell-based, Enterococcus faecium. As to the method: as §1
The test system of another assay is M. luteus, ATCC 9341. Described as above. In kind it is cell-based, Micrococcus luteus. On the procedure: as §1
In the next assay the test system is S. aureus ATCC 29213. The description is as above. In kind it is cell-based. On the procedure: as §1
For assay [1], the system named is S. aureus ATCC 43300 (MRSA). The assay is described as above. In kind it is cell-based. On the procedure: as §1
In a further assay the test system is S. aureus NCTC 6571. The assay is described as above. The class given is cell-based. On the procedure:
as §1

Assay [2] concerns IMR90 Human Lung Fibroblast (ATCC CCL-186) cells. Nature of the assay: In vitro cytotoxicity, CellTiter-GLO 2.0 viability assay. In kind it is cell-based. The settings on record: IMR-90, 24 hours exposure, viability relative to control wells.
Protocol: Xantolipin was obtained from Shaghai Jiao Tong University, China.
IMR90 cells were grown in DMEM—low glucose (Sigma) supplemented with 2 mM L-Glutamine, 1% MEM NEAA (Sigma), 1 mM Sodium Pyruvate, 10 mM HEPES and 100 U/mL Pen-Strep. The cells were subcultured twice or thrice a week at ratios between 1:2 and 1:8, depending on confluency. […] The microplates with cell suspension were shaked at 1600 rpm with 2.5 mm amplitude (Bioshake) for 20 seconds after seeding. […] The microplates with the IMR90 cells were incubated at 37° C. with 5% CO2 atmosphere. […] The serial dilutions with the compounds were further diluted in cell culture medium and transferred to the assay wells, giving a total DMSO concentration in the assay wells of 0.6%. After exposure, the assay plates with the IMR90 cells were further incubated at 37° C. with 5% CO2 atmosphere for 24 hours. The viability of the cells after incubation was measured using the Promega CellTiter-GLO 2.0 viability assay.
The mark [3] stands for this setting: footnote of Table 1: resistance profile of Enterococcus faecium CCUG37832, read-out: Mic.
Where [4] appears, read: Enterococcus faecium, CCUG37832, E. faecium CCUG 37832 (multiresistant, vanA-positive clinical isolate), 19 h at 35° C., read-out: MIC.
Setting [5] is: Enterococcus faecium, CTC492, E. faecium CTC 492, 19 h at 35° C., read-out: MIC.
Where [6] appears, read: Micrococcus luteus, ATCC9341, M. luteus, ATCC 9341, 19 h at 35° C., read-out: MIC.
Setting [7] is: Staphylococcus aureus, ATCC29213, S. aureus ATCC 29213, 19 h at 35° C., read-out: MIC.
Setting [8] is: Staphylococcus aureus, S. aureus ATCC 43300 (MRSA), 19 h at 35° C., read-out: MIC.
Setting [9] is: Staphylococcus aureus, NCTC6571, S. aureus NCTC 6571, 19 h at 35° C., read-out: MIC.

For the compound `CC1(C)S[C@@H]2[C@H](NC(=O)[C@H](N)c3ccccc3)C(=O)N2[C@H]1C(=O)O` [Ampicillin], the MIC in the assay on E. faecium CCUG 37832 (setting [3]) came out at 20 µg/mL (≈ 57.2 µM).

With `CN[C@@H]1[C@@H](O[C@H]2O[C@H](CO)[C@@H](N)[C@H](O)[C@H]2O)OC2C[C@@H](N)[C@@H](O[C@H]3[C@H](O)[C@@H](O)[C@H](N)C[C@@H]3N)OC2[C@@H]1O` (stereo partly shown) [Apramycin], in the assay with E. faecium CCUG 37832 (setting [3]), the MIC was greater than 20 µg/mL.

As for `CC[C@H](C)[C@H](N)C1=N[C@H](C(=O)N[C@@H](CC(C)C)C(=O)N[C@H](CCC(=O)O)C(=O)N[C@H](C(=O)N[C@H]2CCCCNC(=O)[C@H](CC(N)=O)NC(=O)[C@@H](CC(=O)O)NC(=O)[C@H](Cc3cnc[nH]3)NC(=O)[C@@H](Cc3ccccc3)NC(=O)[C@H]([C@@H](C)CC)NC(=O)[C@@H](CCCN)NC2=O)[C@@H](C)CC)CS1` [Bacitracin] ({Ileψ(thiazoline)Cys}-L[dE]IK[dOrn]I[dF]H[dD]N; lactam 4-C), the MIC in the assay with E. faecium CCUG 37832 (setting [3]) is greater than 8 µg/mL.

For `CN(C)[C@@H]1C(O)=C(C(N)=O)C(=O)[C@@]2(O)C(O)=C3C(=O)c4c(O)ccc(Cl)c4[C@@](C)(O)[C@H]3C[C@@H]12` [Chlortetracycline], the MIC in the assay on E. faecium CCUG 37832 (setting [3]) was greater than 10 µg/mL.

`N[C@@H]1CON=C1O` [Cycloserine]: the minimum inhibitory concentration (MIC) with E. faecium CCUG 37832 (setting [3]) is greater than 8 µg/mL.

Consider `CCCCCCCCCC(=O)N[C@@H](Cc1c[nH]c2ccccc12)C(=O)N[C@H](CC(N)=O)C(=O)N[C@@H](CC(=O)O)C(=O)N[C@@H]1C(=O)NCC(=O)N[C@@H](CCCN)C(=O)N[C@@H](CC(=O)O)C(=O)N[C@H](C)C(=O)N[C@@H](CC(=O)O)C(=O)NCC(=O)N[C@H](CO)C(=O)N[C@@H]([C@H](C)CC(=O)O)C(=O)N[C@@H](CC(=O)c2ccccc2N)C(=O)O[C@@H]1C` [Daptomycin], for which the MIC is greater than 16 µg/mL with E. faecium CCUG 37832 (setting [4]); greater than 16 µg/mL with E. faecium CTC 492 (setting [5]); 0.5 µg/mL (≈ 0.309 µM) in the assay on M. luteus, ATCC 9341 (setting [6]); 4 µg/mL (≈ 2.47 µM) in the assay with S. aureus ATCC 29213 (setting [7]); 4 µg/mL (≈ 2.47 µM) in assay [1] (setting [8]); 4 µg/mL (≈ 2.47 µM) with S. aureus NCTC 6571 (setting [9]).

`CCC[C@@H]1C[C@@H](C(=O)N[C@@H]([C@H]2O[C@H](SC)[C@H](O)[C@@H](O)[C@H]2O)[C@@H](C)O)N(C)C1` [Lincomycin]: the MIC in the assay on E. faecium CCUG 37832 (setting [3]) was greater than 10 µg/mL.

Consider `CN[C@@H]1[C@H](O)[C@H](NC)[C@H]2O[C@@]3(O)C(=O)C[C@@H](C)O[C@H]3O[C@@H]2[C@H]1O` [Spectinomycin], for which, in the assay on E. faecium CCUG 37832 (setting [3]), the minimal inhibitory concentration (MIC) is greater than 8 µg/mL.

As to `[H]/N=C(/N)N[C@H]1[C@H](O)[C@@H](O)[C@H](O[C@@H]2O[C@@H](C)[C@](O)(C=O)[C@H]2O[C@@H]2O[C@@H](CO)[C@H](O)[C@@H](O)[C@@H]2NC)[C@@H](N/C(N)=N\[H])[C@@H]1O` [Streptomycin], the minimal inhibitory concentration (MIC) in the assay on E. faecium CCUG 37832 (setting [4]) was greater than 16 µg/mL; with E. faecium CTC 492 (setting [5]), greater than 16 µg/mL; in the assay with M. luteus, ATCC 9341 (setting [6]) it was 8 µg/mL (≈ 13.8 µM); in the assay with S. aureus ATCC 29213 (setting [7]) it was 16 µg/mL (≈ 27.5 µM); in assay [1] (setting [8]), 16 µg/mL (≈ 27.5 µM); in the assay on S. aureus NCTC 6571 (setting [9]) it was 16 µg/mL (≈ 27.5 µM).

Turning to `CN[C@H](CC(C)C)C(=O)N[C@H]1C(=O)N[C@@H](CC(N)=O)C(=O)N[C@H]2C(=O)N[C@H]3C(=O)N[C@H](C(=O)N[C@H](C(=O)O)c4cc(O)cc(O)c4-c4cc3ccc4O)[C@H](O)c3ccc(c(Cl)c3)Oc3cc2cc(c3O[C@@H]2O[C@H](CO)[C@@H](O)[C@H](O)[C@H]2O[C@H]2C[C@](C)(N)[C@H](O)[C@H](C)O2)Oc2ccc(cc2Cl)[C@H]1O` [Vancomycin], the MIC was greater than 20 µg/mL with E. faecium CCUG 37832 (Enterococcus faecium, CCUG37832); greater than 16 µg/mL against E. faecium CCUG 37832 (Enterococcus faecium, CCUG37832, 19 h); 1 µg/mL (≈ 0.69 µM) with E. faecium CTC 492 (Enterococcus faecium, CTC492, 19 h); 1 µg/mL (≈ 0.69 µM) against M. luteus, ATCC 9341 (Micrococcus luteus, ATCC9341, 19 h); 2 µg/mL (≈ 1.38 µM) against S. aureus ATCC 29213 (Staphylococcus aureus, ATCC29213, 19 h); 2 µg/mL (≈ 1.38 µM) in assay [1] (Staphylococcus aureus, 19 h). The compound further returned an MIC with S. aureus NCTC 6571 (Staphylococcus aureus, NCTC6571, 19 h) of 2 µg/mL (≈ 1.38 µM).

In turn, `COc1c(Cl)ccc2c(=O)c3c(O)c4c5c(c3oc12)OCO[C@@H]5C[C@@H]1C(=O)c2cc(C)[nH]c(=O)c2C(=O)[C@]41O` [Xantholipin] registered an EC50 in assay [2] of 1 µg/mL (≈ 1.81 µM).

As to `CC[C@H]1OC(=O)[C@H](C)[C@@H](O[C@H]2C[C@@](C)(OC)[C@@H](O)[C@H](C)O2)[C@H](C)[C@@H](O[C@@H]2O[C@H](C)C[C@H](N(C)C)[C@H]2O)[C@](C)(O)C[C@@H](C)C(=O)[C@H](C)[C@@H](O)[C@]1(C)O` [erythromycin], the MIC in the assay with E. faecium CCUG 37832 (setting [3]) was greater than 20 µg/mL.

Take Gentamicin: the MIC amounted to 16 µg/mL against E. faecium CCUG 37832 (E. faecium CCUG 37832 (multiresistant, vanA-positive clinical isolate), 19 h at 35° C.); 16 µg/mL against E. faecium CTC 492 (E. faecium CTC 492, 19 h at 35° C.); 4 µg/mL in the assay with M. luteus, ATCC 9341 (M. luteus, ATCC 9341, 19 h at 35° C.); 4 µg/mL against S. aureus ATCC 29213 (S. aureus ATCC 29213, 19 h at 35° C.); 16 µg/mL in assay [1] (S. aureus ATCC 43300 (MRSA), 19 h at 35° C.); 4 µg/mL against S. aureus NCTC 6571 (S. aureus NCTC 6571, 19 h at 35° C.).
